The test system of this assay is SW480. In words: drug sensitivity score (DSS, integrated dose-response area); higher = more sensitive (stronger viability reduction); extreme values may be limits of the assay. The essentials:
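The drug sensitivity score is the integrated area under a fitted non-linear dose–response model. It was derived from SW480 cells with doxycycline-inducible control or SND1-targeting shRNA, induced with 0.1 µg/mL doxycycline for 7 days and plated at 1000 cells per well on 384-well plates of 525 commercially available small-molecule inhibitors at five concentrations. CellTiter-Glo measured viability after 72 h.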

Where [1] appears, read: shRNA: SND1 shRNA1 (SND1 silenced).
The mark [2] stands for this setting: shRNA: SND1 shRNA2 (SND1 silenced).
Setting [3] is: shRNA: control shRNA (non-targeting).

With `CC[C@H](NC(=O)[C@H](C)NC)C(=O)N1C[C@@H](O)C[C@H]1Cc1c(-c2[nH]c3cc(F)ccc3c2C[C@@H]2C[C@H](O)CN2C(=O)[C@H](CC)NC(=O)[C@H](C)NC)[nH]c2cc(F)ccc12` [Birinapant], the drug sensitivity score was determined as 0 DSS under setting [1], 0 DSS under setting [2] and 0 DSS under setting [3].

For the compound `CCNC(=O)c1noc(-c2cc(C(C)C)c(O)cc2O)c1-c1ccc(CN2CCOCC2)cc1` [Luminespib], the drug sensitivity score by setting is: under setting [1], 15.3 DSS; under setting [2], 15.4 DSS; under setting [3], 15.7 DSS.

For `CNC(=O)c1cc(COc2nnc(Nc3ccc(Cl)cc3)c3ccoc23)ccn1` [Telatinib], the drug sensitivity score runs as follows: under setting [1], 0 DSS; under setting [2], 0 DSS; under setting [3], 0 DSS.

Turning to `CNC(=O)c1ccccc1Sc1ccc2c(/C=C/c3ccccn3)n[nH]c2c1` [Axitinib], the drug sensitivity score was determined as 6 DSS under setting [1], 2.8 DSS under setting [2] and 5.4 DSS under setting [3].

With `Cc1ccc(NC(=O)c2ccc(CN3CCN(C)CC3)cc2)cc1Nc1nccc(-c2cccnc2)n1` [Imatinib], the drug sensitivity score by setting is: under setting [1], 0.7 DSS; under setting [2], 1.4 DSS; under setting [3], 2.5 DSS.

`O=P1(NCCCl)OCCCN1CCCl` (stereo not given) [Ifosfamide] returned a drug sensitivity score under setting [1] of 0 DSS, a drug sensitivity score under setting [2] of 0 DSS and a drug sensitivity score under setting [3] of 0 DSS.

Consider `CS(=O)(=O)c1ccc(-c2cnc(N)c(C(=O)Nc3ccccc3)n2)cc1` [VE-821], for which the drug sensitivity score reads like this: under setting [1], 0 DSS; under setting [3], 0.8 DSS.

As to `COCC[n+]1c2c(n(Cc3cnccn3)c1C)C(=O)c1ccccc1C2=O` [YM155], the drug sensitivity score was 15.5 DSS under setting [1], 8.8 DSS under setting [2] and 21.4 DSS under setting [3].

Turning to `c1ccc(Cn2c(-c3ccc(OC[C@H](C4CCNCC4)n4c(-c5ccccc5)nc5ccccc54)cc3)nc3ccccc32)cc1` [deltarasin], the drug sensitivity score is, setting by setting: under setting [1], 5.7 DSS; under setting [2], 6.6 DSS; under setting [3], 4.4 DSS.

For `O=C(c1ccc(C(=O)N2CCC(N3CCCC3)CC2)c(Nc2ccccc2)c1)N1CCC(N2CCCC2)CC1` [UNC1215], the drug sensitivity score was found to be 2.6 DSS under setting [1], 1.9 DSS under setting [2] and 1.1 DSS under setting [3].

Take `CCc1cncnc1N1CCN(Cc2nc3ccc(C(F)(F)F)cc3[nH]2)CC1`: the drug sensitivity score came to 0.3 DSS under setting [1], 2.9 DSS under setting [2] and 2 DSS under setting [3].

Regarding `COC[C@H](NC(=O)c1cnc(C)s1)C(=O)N[C@@H](COC)C(=O)N[C@@H](Cc1ccccc1)C(=O)[C@@]1(C)CO1` [Oprozomib], the drug sensitivity score is, setting by setting: under setting [1], 17.7 DSS; under setting [2], 16.5 DSS; under setting [3], 19 DSS.

For the compound `Cn1c(Nc2ccc(C(F)(F)F)cc2)nc2cc(Oc3ccnc(-c4ncc(C(F)(F)F)[nH]4)c3)ccc21` [RAF265], the drug sensitivity score runs as follows: under setting [1], 0 DSS; under setting [2], 1.8 DSS; under setting [3], 2 DSS.

Turning to `C=CC(=O)Nc1cccc(Nc2nc(Nc3ccc(OCCOC)cc3)ncc2F)c1` [Spebrutinib], the drug sensitivity score is 2.5 DSS under setting [1], 0 DSS under setting [2] and 4.4 DSS under setting [3].

For the compound `CC[C@@]1(O)C(=O)OCc2c1cc1n(c2=O)Cc2cc3ccccc3nc2-1` [Camptothecin], the drug sensitivity score under setting [1] was found to be 18.4 DSS, the drug sensitivity score under setting [2] amounted to 10.3 DSS and the drug sensitivity score under setting [3] is 12.6 DSS.

As to `O=NN(CCCl)C(=O)NCCCl` [Carmustine], the drug sensitivity score runs as follows: under setting [1], 0 DSS; under setting [2], 0 DSS; under setting [3], 0.4 DSS.

For the compound `Cc1nc(-c2cn3c(n2)-c2ccc(-c4cnn(C(C)(C)C(N)=O)c4)cc2OCC3)n(C(C)C)n1` [Taselisib], the drug sensitivity score is, setting by setting: under setting [1], 0 DSS; under setting [2], 0.7 DSS; under setting [3], 0 DSS.

The compound `CN1CCN(CCOc2cc(OC3CCOCC3)c3c(Nc4c(Cl)ccc5c4OCO5)ncnc3c2)CC1` [Saracatinib] came in with a drug sensitivity score under setting [1] of 1.4 DSS, a drug sensitivity score under setting [2] of 1.3 DSS and a drug sensitivity score under setting [3] of 1.5 DSS.

As to `Cc1ncc(-c2ccnc(Nc3ccc(S(C)(=O)=O)cc3)n2)n1C(C)C` [AZD-5438], the drug sensitivity score by setting is: under setting [1], 11.8 DSS; under setting [3], 12.7 DSS.

On to `CC(=O)c1cnc2ccc(-c3cc(Cl)c(O)c(Cl)c3)nc2c1N[C@H]1CC[C@H](CN(C)C)CC1` [OTSSP167], for which the drug sensitivity score under setting [1] came out at 9.8 DSS, the drug sensitivity score under setting [2] was found to be 8.7 DSS and the drug sensitivity score under setting [3] amounted to 10.6 DSS.

With `CCNC(=O)C[C@@H]1N=C(c2ccc(Cl)cc2)c2cc(OC)ccc2-n2c(C)nnc21`, the drug sensitivity score amounted to 2.7 DSS under setting [1], 0 DSS under setting [2] and 0.6 DSS under setting [3].

On to `CC1(C)NC(=O)N(c2ccc([N+](=O)[O-])c(C(F)(F)F)c2)C1=O` [Nilutamide], for which the drug sensitivity score turned out to be 0 DSS under setting [1], 0 DSS under setting [2] and 0 DSS under setting [3].

For the compound `CN(C)C(=N)NC(=N)N` [Metformin], the drug sensitivity score by setting is: under setting [1], 0 DSS; under setting [3], 1 DSS.

The compound `O=C(CCCCCCC(=O)Nc1ccc([C@H]2O[C@@H](CSc3nc(-c4ccccc4)c(-c4ccccc4)o3)C[C@@H](c3ccc(CO)cc3)O2)cc1)NO` [Tubacin] registered a drug sensitivity score under setting [1] of 4.1 DSS, a drug sensitivity score under setting [2] of 2.7 DSS and a drug sensitivity score under setting [3] of 6.2 DSS.

As for `N#CCNC(=O)c1ccc(-c2ccnc(Nc3ccc(N4CCOCC4)cc3)n2)cc1` [Momelotinib], the drug sensitivity score turned out to be 3.8 DSS under setting [1], 2.1 DSS under setting [2] and 1.9 DSS under setting [3].

Take `CCN(CC)CCNC(=O)c1c(C)[nH]c(/C=C2\C(=O)Nc3ccc(F)cc32)c1C` [Sunitinib]: the drug sensitivity score was 0.3 DSS under setting [1], 0.1 DSS under setting [2] and 0.7 DSS under setting [3].

`CC(C)NC(=O)COc1cccc(-c2nc(Nc3ccc4[nH]ncc4c3)c3ccccc3n2)c1` [SLx-2119]: the drug sensitivity score by setting is: under setting [1], 0 DSS; under setting [2], 0 DSS; under setting [3], 0 DSS.

For the compound `CCc1c(C(=O)C(N)=O)c2c(OCC(=O)O)cccc2n1Cc1ccccc1` [Varespladib], the drug sensitivity score by setting is: under setting [1], 0 DSS; under setting [2], 1.1 DSS; under setting [3], 0 DSS.

For the compound `Nc1ncnc2c1c(COc1cccc(Cl)c1)nn2C1CCOCC1`, the drug sensitivity score runs as follows: under setting [1], 0 DSS; under setting [2], 0.1 DSS; under setting [3], 0 DSS.

As to `CN[C@@H](C)C(=O)N[C@H](C(=O)N1CCC[C@H]1c1nc(C(=O)c2ccc(F)cc2)cs1)C1CCCCC1` [LCL161], the drug sensitivity score by setting is: under setting [1], 0.2 DSS; under setting [2], 0 DSS; under setting [3], 0.5 DSS.

For the compound `Cn1cc(-c2cnn3c(N)c(Br)c([C@@H]4CCCNC4)nc23)cn1` [MK-8776], the drug sensitivity score is, setting by setting: under setting [1], 0.9 DSS; under setting [2], 0.1 DSS; under setting [3], 2.2 DSS.

Take `CC(C)(C)Cn1c(N)nc2ccc(-c3[nH]c(C(C)(C)C)nc3-c3ccc(F)cc3)nc21` [Ralimetinib]: the drug sensitivity score runs as follows: under setting [1], 1.7 DSS; under setting [2], 0 DSS; under setting [3], 0.2 DSS.

Compound `CCn1c(C(=O)N(C2CC2)C2CC2)cc2c3c(ncn3C)c(Nc3cc(C)n(C)n3)nc21` gave a drug sensitivity score under setting [1] of 0 DSS, a drug sensitivity score under setting [2] of 0 DSS and a drug sensitivity score under setting [3] of 0 DSS.

As for `Cn1cnc2c(F)c(Nc3ccc(Br)cc3F)c(C(=O)NOCCO)cc21` [Binimetinib], the drug sensitivity score reads like this: under setting [1], 11.9 DSS; under setting [2], 6.6 DSS; under setting [3], 6.6 DSS.

Take `S=P(N1CC1)(N1CC1)N1CC1` [Thio-TEPA]: the drug sensitivity score runs as follows: under setting [1], 0 DSS; under setting [2], 0 DSS; under setting [3], 0 DSS.

As to `CC(C)C[C@H](NC(=O)[C@@H](COC(C)(C)C)NC(=O)[C@H](Cc1ccc(O)cc1)NC(=O)[C@H](CO)NC(=O)[C@H](Cc1c[nH]c2ccccc12)NC(=O)[C@H](Cc1cnc[nH]1)NC(=O)[C@@H]1CCC(=O)N1)C(=O)N[C@@H](CCCNC(=N)N)C(=O)N1CCC[C@H]1C(=O)NNC(N)=O` [Goserelin], the drug sensitivity score came to 0 DSS under setting [1], 0 DSS under setting [2] and 0 DSS under setting [3].

Consider `CN(C)Cc1ccc(S(=O)(=O)n2ccc(/C=C/C(=O)NO)c2)cc1` [Resminostat], for which the drug sensitivity score by setting is: under setting [1], 8 DSS; under setting [2], 8.1 DSS; under setting [3], 6.1 DSS.

`C[C@@H]1COC(Nc2ccc3ncnc(Nc4ccc(OCc5nccs5)c(Cl)c4)c3c2)=N1` [Varlitinib]: the drug sensitivity score under setting [1] was found to be 0.4 DSS, the drug sensitivity score under setting [2] came to 1.2 DSS and the drug sensitivity score under setting [3] turned out to be 3.5 DSS.

`CC(=O)OC[C@H]1O[C@@H]([S-])[C@H](OC(C)=O)[C@@H](OC(C)=O)[C@@H]1OC(C)=O.CCP(CC)CC.[Au+]` [Auranofin] came in with a drug sensitivity score under setting [1] of 6.2 DSS, a drug sensitivity score under setting [2] of 8.8 DSS and a drug sensitivity score under setting [3] of 8.7 DSS.

Take `C[C@]12C=CC(=O)C=C1CC[C@@H]1[C@@H]2[C@@H](O)C[C@@]2(C)[C@H]1CC[C@]2(O)C(=O)CO` [Prednisolone]: the drug sensitivity score is 0 DSS under setting [1], 0 DSS under setting [2] and 0 DSS under setting [3].

For the compound `CC[C@H](Nc1ncnc2[nH]cnc12)c1nc2cccc(F)c2c(=O)n1-c1ccccc1` [Idelalisib], the drug sensitivity score by setting is: under setting [1], 2.3 DSS; under setting [2], 4.6 DSS; under setting [3], 0.7 DSS.

The values above are taken from the supplement of paper PMC9265050, “Inhibition of RNA Binding in SND1 Increases the Levels of miR-1-3p and Sensitizes Cancer Cells to Navitoclax” (Cancers, 2022).
